Experiments:
Conditions in all cases: incubation time: 72 h
BT-549 [1] = test: normalised response (% of control), CellTiter-Glo; higher = more viable cells (100 = DMSO, 0 = benzethonium chloride kill control)
In short: (§1)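 After 72 h with compound in 384-well plates, breast cancer cell lines seeded as 20 µl suspension were read for CellTox Green fluorescence at 485/520 nm. CellTiter-Glo luminescence was then read after 10 min at room temperature. Compound was present at 5 concentrations in 10-fold steps over a 10,000-fold range set per compound, and plates were normalised to 0.1 % DMSO (100) and a positive kill control (0). Values are normalised signals, each at a single concentration.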

SK-BR-3 = test: as above
In short: as §1

HDQ-P1 [2] = test: as above
In short: as §1

MDA-MB-436 [3] = test: as above
In short: as §1

DU-4475 [4] = test: as above
In short: as §1

MDA-MB-468 [5] = test: as above
In short: as §1

HCC1599 [6] = test: as above
In short: as §1

HCC1937 [7] = test: as above
In short: as §1

MDA-MB-453 [8] = test: as above
In short: as §1

CAL-85-1 [9] = test: as above
In short: as §1

MFM-223 [10] = test: as above
In short: as §1

MDA-MB-231 [11] = test: as above
In short: as §1

CAL-120 [12] = test: as above
In short: as §1

BT-474 [13] = test: as above
In short: as §1

Hs578T [14] = test: as above
In short: as §1

HCC1143 [15] = test: as above
In short: as §1

CAL-148 [16] = test: as above
In short: as §1

MCF-10A [17] = test: as above
In short: as §1

CAL-51 [18] = test: as above
In short: as §1

BT-549 [19] = test: normalised response (% of control), CellTox Green; higher = less cell death (100 = DMSO, 0 = benzethonium chloride kill control)
In short: as §1

HDQ-P1 [20] = test: as above
In short: as §1

MDA-MB-436 [21] = test: as above
In short: as §1

DU-4475 [22] = test: as above
In short: as §1

MDA-MB-468 [23] = test: as above
In short: as §1

HCC1599 [24] = test: as above
In short: as §1

HCC1937 [25] = test: as above
In short: as §1

MDA-MB-453 [26] = test: as above
In short: as §1

CAL-85-1 [27] = test: as above
In short: as §1

MFM-223 [28] = test: as above
In short: as §1

MDA-MB-231 [29] = test: as above
In short: as §1

CAL-120 [30] = test: as above
In short: as §1

BT-474 [31] = test: as above
In short: as §1

Hs578T [32] = test: as above
In short: as §1

HCC1143 [33] = test: as above
In short: as §1

CAL-148 [34] = test: as above
In short: as §1

MCF-10A [35] = test: as above
In short: as §1

CAL-51 [36] = test: as above
In short: as §1

Structure (SMILES) | normalised response (BT-549 [1]) [%] | normalised response (SK-BR-3) [%] | normalised response (HDQ-P1 [2]) [%] | normalised response (MDA-MB-436 [3]) [%] | normalised response (DU-4475 [4]) [%] | normalised response (MDA-MB-468 [5]) [%] | normalised response (HCC1599 [6]) [%] | normalised response (HCC1937 [7]) [%] | normalised response (MDA-MB-453 [8]) [%] | normalised response (CAL-85-1 [9]) [%] | normalised response (MFM-223 [10]) [%] | normalised response (MDA-MB-231 [11]) [%] | normalised response (CAL-120 [12]) [%] | normalised response (BT-474 [13]) [%] | normalised response (Hs578T [14]) [%] | normalised response (HCC1143 [15]) [%] | normalised response (CAL-148 [16]) [%] | normalised response (MCF-10A [17]) [%] | normalised response (CAL-51 [18]) [%] | normalised response (BT-549 [19]) [%] | normalised response (HDQ-P1 [20]) [%] | normalised response (MDA-MB-436 [21]) [%] | normalised response (DU-4475 [22]) [%] | normalised response (MDA-MB-468 [23]) [%] | normalised response (HCC1599 [24]) [%] | normalised response (HCC1937 [25]) [%] | normalised response (MDA-MB-453 [26]) [%] | normalised response (CAL-85-1 [27]) [%] | normalised response (MFM-223 [28]) [%] | normalised response (MDA-MB-231 [29]) [%] | normalised response (CAL-120 [30]) [%] | normalised response (BT-474 [31]) [%] | normalised response (Hs578T [32]) [%] | normalised response (HCC1143 [33]) [%] | normalised response (CAL-148 [34]) [%] | normalised response (MCF-10A [35]) [%] | normalised response (CAL-51 [36]) [%]
Cc1ccc(F)c(NC(=O)Nc2ccc(-c3cccc4[nH]nc(N)c34)cc2)c1 [Linifanib] (10 nM) | 96.7 | 103 | 97.3 | 108 | 105 | 106 | 108 | 99.5 | 97.2 | 92.7 | 106 | 111 | 102 | 107 | 105 | 107 | 112 | 110 | 102 | 96.7 | 112 | 72.8 | 102 | 121 | 111 | 104 | 108 | 97.2 | 108 | 91.7 | 99.2 | 99.7 | 87 | 108 | 108 | 56.1 | 109
S=c1[nH]cnc2nc[nH]c12 [Mercaptopurine] (100 nM) | 104 | 98.3 | 105 | 96.1 | 96.8 | 88.4 | 91.3 | 94 | 95.5 | 90.8 | 98.5 | 101 | 92.5 | 95.1 | 96.6 | 104 | 81.7 | 94.6 | 96.9 | 94.6 | 66.2 | 102 | 98.8 | 134 | 98 | 101 | 103 | 108 | 82.7 | 80.6 | 98.4 | 91.2 | 92.4 | 91.9 | 95.9 | 99.5 | 94.5
Clc1ccc(C(c2ccccc2Cl)C(Cl)Cl)cc1 (configuration not stated) [Mitotane] (100 nM) | 99.6 | 97.7 | 102 | 97.8 | 97.2 | 92.9 | 93.7 | 95.4 | 95.5 | 101 | 95.6 | 98.7 | 97.8 | 94 | 95.3 | 100 | 96.2 | 92.2 | 94.8 | 94.6 | 95.8 | 88.1 | 97.9 | 120 | 100 | 95 | 106 | 105 | 77.9 | 95.5 | 92 | 100 | 91.4 | 92.2 | 101 | 78.6 | 101
C=CC[C@@H]1/C=C(\C)C[C@H](C)C[C@H](OC)[C@H]2O[C@@](O)(C(=O)C(=O)N3CCCC[C@H]3C(=O)O[C@H](/C(C)=C/[C@@H]3CC[C@@H](O)[C@H](OC)C3)[C@H](C)[C@@H](O)CC1=O)[C@H](C)C[C@@H]2OC [Tacrolimus] (100 nM) | 98.2 | 89.7 | 97.7 | 96.4 | 101 | 93 | 95.9 | 98 | 103 | 94.6 | 106 | 110 | 98.8 | 100 | 96.5 | 101 | 111 | 102 | 77.2 | 104 | 69.4 | 103 | 100 | 186 | 95.4 | 107 | 97.8 | 93.4 | 101 | 104 | 100 | 100 | 95.7 | 99.5 | 82 | 57.2 | 91
CO[C@H]1C[C@@H]2CC[C@@H](C)[C@@](O)(O2)C(=O)C(=O)N2CCCC[C@H]2C(=O)O[C@H]([C@H](C)C[C@@H]2CC[C@@H](OC(=O)C(C)(CO)CO)[C@H](OC)C2)CC(=O)[C@H](C)/C=C(\C)[C@@H](O)[C@@H](OC)C(=O)[C@H](C)C[C@H](C)/C=C/C=C/C=C/1C [Temsirolimus] (1 nM) | 68.4 | 68.7 | 94.4 | 87.2 | 92.3 | 56.3 | 111 | 77.8 | 88.4 | 74.8 | 79.6 | 98.8 | 83.4 | 90.8 | 69.9 | 77.4 | 82.5 | 102 | 68.3 | 109 | 113 | 99.8 | 97.5 | 135 | 109 | 118 | 100 | 97.9 | 90.2 | 94.2 | 102 | 89.6 | 66.9 | 117 | 96.7 | 99.6 | 94.9
CC[C@]1(O)C[C@@H]2CN(CCc3c([nH]c4ccccc34)[C@@](C(=O)OC)(c3cc4c(cc3OC)N(C)[C@H]3[C@@](O)(C(=O)OC)[C@H](OC(C)=O)[C@]5(CC)C=CCN6CC[C@]43[C@@H]65)C2)C1 [Vinblastine] (10 nM) | 39.1 | 12.3 | 76.1 | 36 | 96.1 | 33.9 | 70.4 | 71 | 57.4 | 29.4 | 77.1 | 57.8 | 51.5 | 58.2 | 55.4 | 48.6 | 70.8 | 51.6 | 58.1 | 65.2 | 40.4 | 44.7 | 102 | 110 | 84.7 | 92.3 | 98 | 31.4 | 69.6 | -19.5 | 73.6 | 72.6 | 71.2 | 92 | 82.7 | 16.4 | 30.4

From the supplement of paper PMC4862054
